For series [1], the target named is CYP2C9 (Homo sapiens, UniProt P11712). The series is described as follows: CYP inhibition profile. Format: in vitro ADME. To be noted: compound 10 μM. The text has this:
Table 3. CYP inhibition profile. | column: % inhibition / CYP2C9

Series [2] has as its system THP-1 cells. In words: cell viability assay (MTS). To be noted: all concentrations tested. Format: cell-based, human. As to the method: Cell viability assay was performed using residual cells after luciferase assay. Cells were analysed using CellTiter 96 Aqueous One Solution Proliferation Assay (MTS, Promega) according to the manufactural protocols. Absorbance signal were measured using microplate reader (TECAN). Results were normalized using DMSO as a control.

Series [3] has as its target CYP3A4 (Homo sapiens, UniProt P08684). In words: CYP inhibition profile. Format: in vitro ADME. To be noted: compound 10 μM. The text has this:
Table 3. CYP inhibition profile. | column: % inhibition / CYP3A4

In series [4] the test system is interferon stimulated genes (ISG) CXCL10, OAS1, IFITM1 in THP-1 cells. The series is described as follows: real-time PCR of interferon stimulated genes. Format: cell-based, human. To be noted: co-treatment with cGAMP, 4 h, normalized by GAPDH. As to the method:
Next, we further explored type I IFN response induced by activation of STING signalling. The gene expression for various interferon stimulated genes (ISGs) such as CXCL10, OAS1, and IFITM1 was analysed by real-time PCR.
Figure 5. Real-time PCR analysis for gene expression of various interferon stimulated genes (ISG), CXCL10, OAS1, and IFITM1. THP-1 cells were stimulated by indicated concentration of 18p for 4 h. The relative gene expression level was normalized by GAPDH as an internal standard. Graphs depict mean and RQ max values.
Cells were harvest and RNA were isolated using NucleoSpin RNA plus (MN) according to the manufacturer’s instructions. Genomic DNA was removed and cDNA was synthesised using an iScript gDNA clear cDNA synthesis kit (Bio-Rad). Expression levels were assessed by real-time PCR (CFX96 Real-Time PCR detection system, Bio-rad) using IQ SYBR green Supermix (Bio-Rad). The mRNA levels were normalized by GAPDH and calculated by comparative Ct method.

Series [5] concerns the target CYP2C19 (Homo sapiens, UniProt P33261). The series is described as follows: CYP inhibition profile. Format: in vitro ADME. To be noted: compound 10 μM. An excerpt: Table 3. CYP inhibition profile. | column: % inhibition / CYP2C19
Series [6] is described as follows: liver microsomal stability. To be noted: % remaining during 30 min at 1 µM. Format: in vitro ADME, mouse.
Series [7] relates to ISRE-mediated reporter gene induction in THP-1 cells. The series is described as follows: ISRE/IRF luciferase reporter assay in THP-1 dual cells with cGAMP. To be noted: co-treatment with cGAMP (1 μg/mL), 24 h. In general terms: Reporter assays use an easily measured gene product as a stand-in for the process of interest.
The target of series [8] is CYP2D6 (Homo sapiens, UniProt P10635). The series is described as follows: CYP inhibition profile. To be noted: compound 10 μM. Format: in vitro ADME. An excerpt: Table 3. CYP inhibition profile. | column: % inhibition / CYP2D6
Sequence of CYP2D6 (P10635 whole entry): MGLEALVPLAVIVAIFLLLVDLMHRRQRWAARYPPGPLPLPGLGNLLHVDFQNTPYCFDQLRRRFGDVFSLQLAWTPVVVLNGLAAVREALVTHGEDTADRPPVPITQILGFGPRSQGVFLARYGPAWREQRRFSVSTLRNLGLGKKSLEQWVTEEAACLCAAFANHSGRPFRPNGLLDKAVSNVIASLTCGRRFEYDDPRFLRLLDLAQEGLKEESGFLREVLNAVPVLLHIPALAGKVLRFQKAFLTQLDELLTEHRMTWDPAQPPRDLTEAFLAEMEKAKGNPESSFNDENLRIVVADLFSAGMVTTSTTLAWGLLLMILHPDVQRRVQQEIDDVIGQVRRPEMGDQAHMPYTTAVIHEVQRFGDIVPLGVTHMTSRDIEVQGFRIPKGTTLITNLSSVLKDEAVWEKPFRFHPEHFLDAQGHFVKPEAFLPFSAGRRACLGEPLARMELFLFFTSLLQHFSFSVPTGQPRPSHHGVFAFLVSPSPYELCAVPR
The target of series [9] is T1, CYP1A2 (Homo sapiens, UniProt P05177).
T1 sequence (P05177 1-516): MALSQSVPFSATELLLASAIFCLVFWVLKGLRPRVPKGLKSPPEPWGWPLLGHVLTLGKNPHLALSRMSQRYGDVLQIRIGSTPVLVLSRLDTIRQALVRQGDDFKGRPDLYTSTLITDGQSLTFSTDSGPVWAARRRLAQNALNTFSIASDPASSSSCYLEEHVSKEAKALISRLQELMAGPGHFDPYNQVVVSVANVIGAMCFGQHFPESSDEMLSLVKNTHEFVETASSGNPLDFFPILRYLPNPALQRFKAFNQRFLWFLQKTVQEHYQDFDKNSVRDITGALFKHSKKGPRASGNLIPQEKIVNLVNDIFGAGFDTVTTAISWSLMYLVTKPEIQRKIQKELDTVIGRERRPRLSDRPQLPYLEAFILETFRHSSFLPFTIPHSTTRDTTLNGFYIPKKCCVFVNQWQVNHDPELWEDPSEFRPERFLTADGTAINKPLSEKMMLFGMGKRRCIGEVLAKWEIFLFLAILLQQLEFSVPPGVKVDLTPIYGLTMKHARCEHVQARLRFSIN
In words: CYP inhibition profile. Format: in vitro ADME. To be noted: compound 10 μM. An excerpt:
Table 3. CYP inhibition profile. | column: % inhibition / CYP1A2

Series [10] can be described thus: liver microsomal stability. To be noted: % remaining during 30 min at 1 µM. Format: in vitro ADME, human. In general terms: Liver microsomes are a subcellular fraction often used to study metabolism.
Series [11] relates to 4T1 syngeneic mouse tumour model. The series is described as follows: 4T1 syngeneic mouse tumour model efficacy. Format: in vivo. To be noted: 40 mg/kg orally once daily, day 14, 4T1 tumour in BALB/c mice. As to the method: (§1) Thus, we evaluated the anti-cancer efficacy in the 4T1 syngeneic mouse tumour model to test the therapeutic potential of 18p. We postulated the marginal amount of cGAMP released by tumour could initiate the synergy effect of 18p, then administrated the compound by single-treatment[5]. After 4T1 tumour cells were implanted and grown in the flank of mice, 18p was orally administered (40 mg/kg) once daily and monitored the tumour volume and body weight of each mouse.
(§2) Figure 7. 4 × 10^5 of 4T1 cells were subcutaneously inoculated into right side flank of BLAB/c mice (n = 6). Mice were orally administrated by 18p (40 mg/kg) or vehicle by every day. (a) Tumour growth curve of 18p or vehicle. X-axis indicates days after treatment. (b) Tumour growth (%) on day 14. (c) Body weight of 18p or vehicle. X-axis indicates days after treatment. Statistics for tumour volume and tumour growth were analysed by 2way ANOVA and student t-test. *p < 0.05. **p < 0.01. Graphs are depicted by mean and SD.
(§3) The study for murine 4T1 […] was approved by the Institutional Animal Care and Use Committee (IACUC) of the Korea Institute of Science and Technology (KIST-2021–04-048). Female BALB/c mice were 8 weeks obtained from DBL (Korea). […] Tumour volume was calculated by following formula: Tumour volume (mm^3) = 0.5 × [length, (mm) × width, (mm)2].

The subject of series [12] is IP-10 secretion in THP-1 cells. The series is described as follows: IP-10 cytokine secretion by ELISA. To be noted: co-treatment with cGAMP, 8 h. Background: ELISA stands for enzyme-linked immunosorbent assay.
Description: (§4) Extracellular secretion of IFN-β and IP-10 was measured by enzyme-linked immunosorbent assay (ELISA).
(§5) THP-1 cells were seeded in 96 well plate and treated with the compounds for 8 h incubation. 100 μL of cell culture supernatant was harvested and analysed using manufactural protocols.
A short description of series [13]: liver microsomal stability. To be noted: % remaining during 30 min at 1 µM. Format: in vitro ADME, rat.
Series [14] is described as follows: body weight in 4T1 syngeneic mouse tumour model. Format: in vivo, BALB/c mice. To be noted: 40 mg/kg orally once daily, two weeks, 4T1 tumour-bearing mice. As to the method: as §1, §2, §3
Series [15] concerns IFN-β secretion in THP-1 cells. The series is described as follows: IFN-β cytokine release by ELISA. To be noted: co-treatment with cGAMP, 8 h.
Description: as §4, §5

In general, TGI refers to how far tumour growth fell short of that in controls.

Structures can show the parent of a compound that is named as a salt.

Sequence of CYP3A4 (P08684 whole entry): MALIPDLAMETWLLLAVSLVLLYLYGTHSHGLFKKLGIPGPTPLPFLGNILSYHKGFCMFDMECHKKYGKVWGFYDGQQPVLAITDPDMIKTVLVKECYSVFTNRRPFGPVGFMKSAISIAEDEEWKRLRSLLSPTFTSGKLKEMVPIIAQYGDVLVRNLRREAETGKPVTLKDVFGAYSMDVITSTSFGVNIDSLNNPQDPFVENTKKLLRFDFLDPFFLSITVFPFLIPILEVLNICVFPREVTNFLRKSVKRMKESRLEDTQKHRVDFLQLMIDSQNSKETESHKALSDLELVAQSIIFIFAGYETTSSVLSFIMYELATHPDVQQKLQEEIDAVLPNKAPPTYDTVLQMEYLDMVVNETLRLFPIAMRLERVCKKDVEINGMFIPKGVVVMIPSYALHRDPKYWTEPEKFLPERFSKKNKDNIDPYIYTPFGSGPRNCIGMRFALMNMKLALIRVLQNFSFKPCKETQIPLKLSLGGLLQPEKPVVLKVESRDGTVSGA
Sequence of CYP2C9 (P11712 whole entry): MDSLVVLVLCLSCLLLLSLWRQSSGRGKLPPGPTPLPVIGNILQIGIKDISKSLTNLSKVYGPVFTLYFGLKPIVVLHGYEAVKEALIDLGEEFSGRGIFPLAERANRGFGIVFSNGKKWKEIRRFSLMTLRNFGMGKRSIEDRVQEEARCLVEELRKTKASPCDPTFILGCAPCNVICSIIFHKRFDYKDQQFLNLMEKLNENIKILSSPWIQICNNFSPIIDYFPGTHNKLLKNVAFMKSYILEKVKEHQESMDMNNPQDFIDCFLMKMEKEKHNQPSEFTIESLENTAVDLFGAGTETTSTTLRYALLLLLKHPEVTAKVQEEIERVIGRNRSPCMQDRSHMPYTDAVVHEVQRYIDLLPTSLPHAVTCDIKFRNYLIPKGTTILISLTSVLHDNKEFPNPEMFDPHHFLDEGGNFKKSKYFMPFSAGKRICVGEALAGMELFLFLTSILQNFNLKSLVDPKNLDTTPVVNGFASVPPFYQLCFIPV
Sequence of CYP2C19 (P33261 whole entry): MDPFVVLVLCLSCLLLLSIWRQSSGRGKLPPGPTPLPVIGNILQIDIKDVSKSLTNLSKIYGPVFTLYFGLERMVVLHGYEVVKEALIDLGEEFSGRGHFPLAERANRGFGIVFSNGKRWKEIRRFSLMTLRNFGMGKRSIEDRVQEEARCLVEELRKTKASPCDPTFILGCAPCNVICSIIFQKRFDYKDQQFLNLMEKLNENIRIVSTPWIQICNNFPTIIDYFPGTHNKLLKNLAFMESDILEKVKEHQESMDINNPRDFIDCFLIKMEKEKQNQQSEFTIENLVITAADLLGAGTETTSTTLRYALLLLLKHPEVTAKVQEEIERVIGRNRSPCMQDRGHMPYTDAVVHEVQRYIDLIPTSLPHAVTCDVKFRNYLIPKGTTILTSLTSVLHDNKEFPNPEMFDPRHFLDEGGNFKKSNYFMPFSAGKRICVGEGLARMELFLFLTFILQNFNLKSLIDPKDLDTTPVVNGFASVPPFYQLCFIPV

As for `CC1(CNS(N)(=O)=O)CCN(c2ncnc3[nH]ccc23)CC1` [18p, N-((4-Methyl-1-(7H-pyrrolo[2,3-d]pyrimidin-4-yl)piperidin-4-yl)methyl)methanesulfamide hydrochloride], in [1], the “% inhibition CYP2C9” value was 0.0%. For the same molecule, the “cell viability / toxicity” value in series [2] is recorded as “no obvious toxicity”. Also, the “% inhibition CYP3A4” value in series [3] came out at 8.9%. Moreover, in series [4], the “gene expression of interferon stimulated genes (CXCL10, OAS1, IFITM1)” value was “induced expression of all ISG genes we tested”. Also, in series [5], the “% inhibition CYP2C19” value was determined as 10.3%. For the same molecule, the “Microsomal stability (%) Mouse” value in [6] was determined as 83%. Besides, the “cGAMP-induced ISRE activation (luciferase signal)” value in series [7] is given as “clearly increased the cGAMP-induced ISRE activation in dose-dependent manner”. Moreover, the “% inhibition CYP2D6” value in [8] turned out to be 0.5%. Moreover, in [9], the “% inhibition CYP1A2” value came out at 12.0%. Moreover, in series [10], the “Microsomal stability (%) Human” value is 93%. Moreover, in [11], the TGI is reported as 39%. In addition, the IP-10 cytokine secretion entry in [12] is recorded as “secreted more cytokine than with cGAMP alone”. For the same molecule, the “Microsomal stability (%) Rat” value in series [13] is listed as 96%. Besides, the body weight result in series [14] is reported as “no weight loss”. Moreover, the IFN-β cytokine release entry in series [15] was “secreted more cytokine than with cGAMP alone”.

Values taken from article PMC9467556, “Identification of novel pyrrolopyrimidine and pyrrolopyridine derivatives as potent ENPP1 inhibitors” (Journal of Enzyme Inhibition and Medicinal Chemistry, 2022).
